Assay results as given in US12643899B2, “Antiviral agents, uses thereof and methods for their preparation” (The University of British Columbia, priority 2020, dated 2026).
Where two headings read alike, the source gives them in different places.

How the values were obtained:
ZIKV [1] = assay: Time-of-addition study of ZIKV infection in A549 cells (plaque assay); assay type: cell-based, Zika virus; conditions: 250 nM CA; full lifecycle, pre-replication, post-replication; A549, MOI 1.0
Experimental: Error bars represent SEM among 3 biological replicates. Significance was calculated by a 2-tailed unpaired Student's t-test. *, p<0.05.
Cultured A549 cells were inoculated with ZIKV for 1 h at MOI 1.0, and maintained for 2 d under different experimental conditions. For “Full lifecycle” 250 nM CA was added following the inoculation and maintained in the medium for 2 d; for “Pre-replication” 250 nM CA was added following the inoculation and maintained in the medium for 6 h, after which the cells were washed with PBS and the medium was changed; and for “Post-replication” 250 nM CA was added to the culture medium 12 hours post infection (hpi) and maintained until 24 hpi, after which the cells were washed with PBS and the medium was changed.

DENV-3 = DENV-3 intracellular dsRNA (Cellomics) in A549 cells; assay type: cell-based, dengue virus
Experimental: Error bars represent SD among 3 biological replicates. Cultured A549 cells were treated with the indicated concentrations of CA (1=Mock, 2=0 M, 3=1 μM, 4=5 M, 5=10 M, 6=20 µM) or PF-429242 (7=15 M) for 1 h before being washed with PBS and infected with DENV-2, DENV-3, or DENV-4 at MOI 1.0 for 48 h. Cells were labeled for viral dsRNA with […] then imaged and quantified using the Cellomics ArrayScan™ VTI High Content Screening system.
Viruses. ZIKV: ZIKV strain PRVABC59 (Puerto Rico/2015) (ATCC #VR-1843) was used in these studies, specifically three separate stocks generated in Vero E6 cells with titres of 1.35×10^8 pfu/mL, 1.0×10^7 pfu/mL, and 2.9×10^6 pfu/mL respectively. DENV strains: DENV-2 strain NGC, DENV-3 strain H-87, and DENV-4 strain H-241 were kindly provided by National Microbiology Laboratory, Winnipeg, MB, Canada.
A549 cells were seeded onto Corning tissue culture treated 96 well plates and incubated at 37 degrees Celsius and 5% CO2 for 24 h. CA was diluted in MEM complete media to concentrations of 1 μM, 5 μM, 10 μM, 20 μM, including a 0 μM condition. Diluted CA was added to each well and cells were incubated at 37 degrees Celsius and 5% CO2 for 1 h. After 1 h, cells were washed once with PBS to remove CA and were then infected with DENV-2, -3 or -4 at an MOI of 1. […] Labeled 96 well plates were imaged and quantified using the Cellomics ArrayScan VTI. […]

V-ATPase = target: T1, V-ATPase (Homo sapiens, UniProt P27449); assay: Acridine orange vital staining of intracellular organelles of A549 cells (V-ATPase inhibition); assay type: cell-based; conditions: CA 250 nM, 6 h
T1 construct: endogenous in cells; host or cells: A549 cells (ATCC #CCL-185, or acquired from Synthego)
Experimental: Cultured A549 cells were treated with 1 μM CD, or 250 nM CA or the V-ATPase specific inhibitor bafilomycin A1 (100 nm) for 6 h. After removing the culture medium and washing the cells with Hanks' balanced salt solution (HBSS), a 1:4000 dilution of acridine orange (2% solution, Polysciences Inc.) in HBSS was added to cells and incubated for 10 min. Cells were then washed again with HBSS and analyzed by fluorescence microscopy. In color images, a red color corresponds to the protonated version of the molecule, which permeates acidic organelles and becomes sequestered following protonation. One representative of 3 biological replicates is shown.

[2] = test system: human coronavirus 229E (HCoV-229E); assay: HCoV-229E intracellular viral dsRNA assay in Huh-7 cells; assay type: cell-based; conditions: Huh-7, 48 h
Experimental: An IF-based assay was used to monitor viral dsRNA in infected cells.
CA pre-treatment: Cladoniamide A was added to non-infected Huh-7 cells (3 h). Cells were washed with PBS and inoculated with human coronavirus 229E (HCoV-229E) for 3 hours, then HCoV-229E was removed and the cells were washed with PBS once more. 48 hours post-infection, the cells were fixed and the intra-cellular viral dsRNA was quantified (HCS CX5 system). CA added post-infection: Huh-7 cells were inoculated with HCoV-229E for 3 hours. Then HCoV-229E was removed and cells were washed with PBS. Cladoniamide A was added to these infected cells. 48 hours post-infection, the cells were fixed and the intra-cellular viral dsRNA was quantified (HCS CX5 system).

SARS-CoV-2 = SARS-CoV-2 intracellular viral RNA and nucleocapsid protein in Caco-2 cells; assay type: cell-based
brain organoids = assay: CellTiter Glo 3D cell viability assay in brain organoids; assay type: cell-based; conditions: 1 μM
Experimental: FIG. 19 is a plot showing toxicity results for brain organoids treated with 1 μM CA.
(§1) FIG. 18 is a plot showing the anti-ZIKV activity of cladoniamide A (incubation with 1 μM CA for 72 hours; 2 biological replicates, each with 4 organoids/well) using four brain organoid systems. There was a greater than 4-log reduction in extracellular ZIKV titer when treated with CA. […] FIGS. 20 and 21 show plots showing the anti-ZIKV activity of CA and CC (incubation with 10 μM CA or CC for 69 hours, MOI 1; 4 technical replicates as there were 4 organoids/[…]).

ZIKV [3] = assay: NS1 and dsRNA in ZIKV-infected brain organoids; assay type: cell-based, Zika virus; conditions: 10 μM, 69 hours, MOI 1
Experimental: FIG. 17 is a schematic showing the general method 20 used in Example 6. Referring to FIG. 17, following growth of the brain organoids in STEMdiff™ media 22 (4 organoids/well), the media was aspirated 24. Then, 500 μL ZIKV at the desired MOI in fresh media was added 26 and the brain organoids incubated at 37° C. for 3 hours with gentle shaking 28. The brain organoids were then washed with 2×1 mL PBS 30, and fresh media and CA or cladoniamide C (CC) added to the desired concentration 32 prior to incubation for the desired time at 37° C. 34. The supernatant was collected and frozen at −86° C. 36 prior to analysis and the brain organoids transferred to an Eppendorf with paraformaldehyde for electron microscopy 38.
as §1

T1 sequence (P27449 whole entry, looked up): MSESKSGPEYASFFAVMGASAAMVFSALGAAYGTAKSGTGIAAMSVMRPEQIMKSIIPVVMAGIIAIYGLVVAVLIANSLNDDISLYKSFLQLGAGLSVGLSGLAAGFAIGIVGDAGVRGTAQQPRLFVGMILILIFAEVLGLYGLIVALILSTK

For `COc1c2n(c3ccccc13)[C@]1(O)C(=O)N(C)C(=O)[C@]1(O)c1c-2[nH]c2ccc(Cl)cc12` [CA, (11S,15R)-7-chloro-11,15-dihydroxy-23-methoxy-13-methyl-3,13,16-triazahexacyclo[14.7.0.0^2,10.0^4,9.0^11,15.0^17,22]tricosa-1(23),2(10),4(9),5,7,17,19,21-octaene-12,14-dione], the “step of ZIKV infection inhibited” value (ZIKV [1]) was “dual inhibitor of ZIKV infection targeting the entry and maturation steps”, the “activity against Dengue virus 3 in vitro” value (DENV-3; 1-20 μM, FIG. 8 middle plots) was “good activity” and the IC50 (DENV-3; Dengue virus, DENV3, DENV-3, intracellular dsRNA (Cellomics)) was 1.5 µM. The “vital staining with acridine orange of intracellular organelles” value (V-ATPase) was “inhibited vital staining”, the EC50 [2] was 0.015 µM and the EC50 (SARS-CoV-2; Severe acute respiratory syndrome coronavirus 2, Caco-2, read-out: ED50, intracellular SARS-CoV-2 nucleocapsid protein, Caco-2 cells, 3 hours pre-treatment) was 0.005 µM. For the same compound, the EC50 (SARS-CoV-2; Severe acute respiratory syndrome coronavirus 2, Caco-2, read-out: ED50, intracellular viral RNA, Caco-2 cells, 3 hours pre-treatment) was 0.002 µM, the “toxicity to brain organoids” value (brain organoids) was “not toxic” and the “anti-ZIKV activity in brain organoids (NS1, dsRNA)” value (ZIKV [3]) was “showed anti-ZIKV activity”.
